Details of data set [1]: method as in Xiao et al., 2005. The following applies: ref Xiao et al., 2005, cited from earlier work.
On the set-up of data set [2]: method as in Justino et al., 2004. The following applies: rats, single oral 10 mg quercetin/200 g body weight, an hour later; ref Justino et al., 2004; cited from earlier work.
Details of data set [3]: method as in Xiao et al., 2005. The following applies: rats, radiolabeled quercetin by gavage, free or metabolized; ref Xiao et al., 2005; cited from earlier work.
Data set [4] is described as follows: Solubility of Que in release medium. It counts as physicochemical. The following applies: PBS containing 0.1% (w/v) Tween 80 (pH 7.4).
Details of data set [5]: method as in Bi et al., 2019. The following applies: piperine as a bioenhancer; ref Bi et al., 2019; cited from earlier work.

Converted amounts (≈) assume the structure as drawn.

In the case of `O=c1c(O)c(-c2ccc(O)c(O)c2)oc2cc(O)cc(O)c12` [Quercetin, 3,3′,4′,5,7-pentahydroxyflavone], in data set [1] (artificial gastric juice), the “Solubility in artificial gastric juice” value is 5.5 µg/mL (≈ 18.2 µM). Besides, in data set [1] (artificial intestinal juice), the “Solubility in artificial intestinal juice” value is listed as 28.9 µg/mL (≈ 95.6 µM). For the same compound, the Solubility in water result in data set [1] (water) is on record as “about 0.09 μg/mL”. Also, in data set [2], the Quercetin metabolized is given as 93%. In data set [3], the Total quercetin absorbed is 20%. Also, the solubility (usually the dissolved amount per volume that the medium holds) in data set [4] stood at 30 µg/mL (≈ 99.3 µM).
In the case of `O=C(/C=C/C=C/c1ccc2c(c1)OCO2)N1CCCCC1` [piperine, Piperine], in data set [5], the Bioavailability of silybin was 146–181%.

The values above are taken from PMC8218931, “Enhancement of oral bioavailability of quercetin by metabolic inhibitory nanosuspensions compared to conventional nanosuspensions” (Drug Delivery, 2021).
